Measurements as given in PubChem BioAssay (NCI).
Several values for one entry are separate records, joined by “and”; a condition that tells them apart may be missing. Equal values may be shown once.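 Exposure lasted 48 hours, with cells grown in 96-well plates and compounds tested at five concentrations. GI50 = concentration required for 50% inhibition of growth. TGI denotes the concentration required for complete inhibition of growth.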 *1 amine or outer side, *2 acyl side, *3 side chain or, on linkers, in order; H or OH if unused. Where a SMILES comes first, the peptide text is derived from it. [ ]: non-standard residue; d: D form. The star is where a group is joined. ξ: configuration not given here. X15 = CCN(CC)c1ccc2cc(N*)c(=O)oc2c1; dIva = CC[C@@](C)(N)C(=O)O; X14 = O=C(OCCN[*:1])[*:2]; Aib = CC(C)(N)C(=O)O; ξP = O=C(O)C1CCCN1; βAla = NCCC(=O)O

Legend:
Test in all cases: NCI-60 cell line screen, 48 h
DU-145 prostate = system: DU-145 prostate
HOP-92 NSCLC = system: HOP-92 NSCLC
HT29 colon = system: HT29 colon
LOX IMVI melanoma = system: LOX IMVI melanoma
MDA-MB-231 breast = system: MDA-MB-231 breast
OVCAR-8 ovarian = system: OVCAR-8 ovarian
SK-MEL-5 melanoma = system: SK-MEL-5 melanoma
U251 CNS = system: U251 CNS

Row | Compound | GI50 (DU-145 prostate) | TGI (DU-145 prostate) | GI50 (HOP-92 NSCLC) | TGI (HOP-92 NSCLC) | GI50 (HT29 colon) | TGI (HT29 colon) | GI50 (LOX IMVI melanoma) | TGI (LOX IMVI melanoma) | GI50 (MDA-MB-231 breast) | TGI (MDA-MB-231 breast) | GI50 (OVCAR-8 ovarian) | TGI (OVCAR-8 ovarian) | GI50 (SK-MEL-5 melanoma) | TGI (SK-MEL-5 melanoma) | GI50 (U251 CNS) | TGI (U251 CNS)
1 | CCN1C(=O)N(CC)C2C1NN=c1s/c(=C\c3cc4ccccc4[nH]3)c(=O)n12 (stereo not drawn) | 0.0225 µM | > 100 µM | 0.0681 µM | 6.28 µM | < 0.01 µM | > 100 µM | < 0.01 µM | > 100 µM | 0.0118 µM | 27 µM | < 0.0191 µM | 31.3 µM | 0.0202 µM | 0.063 µM | 0.0383 µM | 17.4 µM
2 | CCN(CC)c1ccc2cc(NC(=O)OCCNC(=O)CCNC(=O)[C@H](CC(C)C)NC(=O)C(C)(C)NC(=O)C(C)(C)NC(=O)[C@H](CC(C)C)NC(=O)CCNC(=O)C(C)(C)NC(=O)[C@H](CC(C)C)NC(=O)CCNC(=O)[C@@](C)(CC)NC(=O)[C@H](C)NC(=O)CCNC(=O)C(C)(C)NC(=O)[C@H](C)NC(=O)[C@@H]3CCCN3C(=O)[C@@](C)(CC)NC(=O)[C@H](Cc3ccccc3)NC(=O)C3CCCN3C(=O)C(C)(C)NC(=O)C3CCCN3C(=O)C(C)(C)NC(C)=O)c(=O)oc2c1 (stereo partly drawn) (Ac-[Aib][ξP][Aib][ξP]F[dIva]PA[Aib][βAla]A[dIva][βAla]L[Aib][βAla]L[Aib][Aib]L[βAla][X14]-X15) | 0.00497 µM | 0.0199 µM | 0.0256 µM | 0.0709 µM | 0.00366 µM | 0.103 µM | 0.00192 µM | 0.00384 µM | – | – | 0.005 µM | 0.0939 µM | 0.00256 µM | 0.00666 µM | 0.00317 µM | 0.0162 µM
3 | Nc1nc(N)c(N=O)c(OCC2CCCCC2)n1 | 5.93 µM | > 100 µM | 2.25 µM | 8.41 µM and 59.2 µM | 6.88 µM | > 100 µM and 74.2 µM | 4.77 µM | > 100 µM | 8.07 µM | 77.9 µM and > 31.4 µM | – | > 100 µM | 13.7 µM | 60 µM and 42 µM | 13.9 µM | > 100 µM and 52.5 µM
4 | FC(F)(F)c1ccc(-c2cnc(Cl)nc2NCc2cc(C(F)(F)F)cc(C(F)(F)F)c2)cc1 | 3.92 µM | > 100 µM | 1.37 µM | 4.3 µM | 3.26 µM | > 100 µM | 2.74 µM | > 100 µM | 2.19 µM | 6.4 µM | 3.48 µM | > 100 µM | 5.19 µM | > 100 µM | 2.81 µM | > 100 µM
5 | COc1cc2c3c(n(C)c(=O)c2cc1OC)-c1cc2c(cc1/C3=C\C(N)CN)OCO2 (stereo not drawn) | 2.02 µM | 10 µM | 0.368 µM | 6.8 µM | 2.61 µM | > 100 µM | 1.05 µM | 3.12 µM | 4.15 µM | > 53.3 µM | 1.75 µM | 18.8 µM | 2.8 µM | 8.53 µM | 0.371 µM | 2.42 µM
6 | OCC1OC(n2cnc3c(=S)nc[nH]c32)C(O)C1O (stereo not drawn) | – | > 2500 µM | 0.698 µM | > 1780 µM | 4.72 µM | > 2500 µM | 0.705 µM | > 2500 µM | 14.1 µM | > 2500 µM | 6.36 µM | > 2500 µM | 9.5 µM | > 2500 µM | 58.3 µM | > 2500 µM
7 | CC(=O)O[C@H]1CC[C@@]2(C)[C@@H](CC[C@@H]3[C@@H]2CC[C@]2(C)C=C(C=O)C[C@@H]32)C1 | 4.75 µM | 15.9 µM | – | – | 8.32 µM | 25.6 µM | 1.75 µM | 3.54 µM | 10.6 µM | 27.5 µM | 2.96 µM | 9.59 µM | 3.56 µM | 14.4 µM | 2.02 µM | 4.9 µM
8 | CC12CC(OC(=O)[C@]1(C)O)[C@@H]([C@]1(O)CC[C@H]3[C@@H]4C[C@H]5O[C@]56[C@@H](O)C=CC(=O)[C@]6(C)[C@H]4CC[C@@]31C)C2 (stereo partly drawn) | – | 86.7 µM | – | 8.08 µM | – | 15.2 µM | – | 15.9 µM | – | 16.7 µM | – | 13.3 µM | – | 17.8 µM | – | 30 µM
9 | CCCOc1nc(SCCC)nc2c1cnn2-c1ccccc1 | > 100 µM | > 100 µM | 2.93 µM | > 100 µM | – | – | > 100 µM | > 100 µM | > 100 µM | > 100 µM | > 100 µM | > 100 µM | > 100 µM | > 100 µM | > 100 µM | > 100 µM
10 | c1ccc(P(CCP(CCP(c2ccccc2)c2ccccc2)c2ccccc2)CCP(c2ccccc2)c2ccccc2)cc1 (stereo not drawn) | – | > 10 µM | > 10 µM and 2.25 µM | > 10 µM | – | > 10 µM | – | 2.84 µM | > 10 µM and 3.58 µM | > 10 µM | > 10 µM and 1.87 µM | > 10 µM | > 10 µM and 4.12 µM | > 10 µM | > 10 µM and 1.04 µM | > 10 µM
11 | CCCCN(CCCC)c1ccc(C(=NC(C)CCCN(CC)CC)c2ccc(N(C)C)cc2)cc1 (stereo not drawn) | 1.57 µM | 6.04 µM | 0.609 µM | 1.71 µM | 0.58 µM | 1.58 µM | 0.775 µM | 1.46 µM | 0.863 µM | 1.82 µM | 0.99 µM | 2.09 µM | 0.806 µM | 1.5 µM | 0.81 µM | 1.58 µM
12 | COCCNc1cc(NC(=O)N2CCCc3cc(CN4CCN(C)CC4=O)c(C=O)nc32)ncc1C#N | > 50 µM | > 50 µM | 1.59 µM | 21.6 µM | > 50 µM | > 50 µM | > 50 µM | > 50 µM | 44.8 µM | > 50 µM | > 50 µM | > 50 µM | > 50 µM | > 50 µM | > 50 µM | > 50 µM
13 | Cc1cn2c(/C=N/Nc3ccccn3)c(-c3ccc(Cl)c([N+](=O)[O-])c3)nc2s1 | 6.39 µM | 29.8 µM | 12.9 µM | > 50 µM | – | – | 8.03 µM | 16.5 µM | 6.73 µM | 18.2 µM | 8.96 µM | 19.8 µM | 43.9 µM | > 50 µM | 8.22 µM | 15.4 µM
14 | Nc1ccc(-c2ccc(N)cc2I)c(I)c1 | 21.8 µM | 59.9 µM | 11.2 µM | 37 µM | 20 µM | 42.8 µM | 16.3 µM | 31.2 µM | 16.6 µM | 46.4 µM | 27.1 µM | 94.7 µM | 13.9 µM | 27.2 µM | 16.3 µM | 35.6 µM
